Test system: rumen inoculum from fistulated cows
Test: In vitro batch culture incubation of a Senecio PA mixture with rumen inoculum
Type: in vitro ADME
Conditions: incubation with rumen inoculum up to 20 h

| Structure (SMILES) | degradation rate in rumen incubation (half-life ranking) |
| --- | --- |
| C/C=C1/C[C@@]2(CO)O[C@@]2(C)C(=O)OCC2=CCN3CC[C@@H](OC1=O)[C@@H]23 [erucifoline] | ranged in the middle |
| C/C=C1/C[C@@H](C)[C@@](C)(O)C(=O)OCC2=CCN3CC[C@@H](OC1=O)[C@@H]23 [senecionine] | fastest degradation |
| C=C1C/C(=C/C)C(=O)O[C@@H]2CCN3CC=C(COC(=O)[C@]1(C)O)[C@H]23 [seneciphylline] | fastest degradation |
| C/C=C1/C[C@@H](C)[C@@](C)(O)C(=O)OC/C2=C/CN(C)CC[C@@H](OC1=O)C2=O [senkirkine] | slower degradation rates |

Reference: publication PMC9413219 (Journal of Agricultural and Food Chemistry, 2022)
